# “And” between values parts separate entries of the source, which are not always exact repeats. Equal entries are not always repeated.
# Key:
# [1] = biological target: T1, C-IAP1 BIR3 (Homo sapiens, UniProt Q13490); test: Fluorescence polarization peptide binding assay, C-IAP1 BIR3; settings: for IC50: 0.2 μM C-IAP1 BIR3, 5 nM AVP-diPhe-FAM probe, one hour incubation; for Ki: determined from the IC50 values (procedure of Keating et al.)
# T1 construct: 0.2 μM C-IAP1 BIR3
# Protocol: (§1) Polarization experiments were performed on an Analyst HT 96-384 reader (Molecular Devices Corp.) in order to determine dissociation constants (Kd) between IAP protein BIR domains and the fluorescent probe. Samples for fluorescence polarization affinity experiments were prepared by addition of serial dilutions of IAP BIR domains (C-IAP1 BIR3, C-IAP-2 BIR3, ML/X-IAP chimera MLXBIR3SG and X-IAP BIR3) in polarization buffer (50 mM Tris [pH 7.2], 120 mM NaCl, 1% bovine globulins 5 mM DTT and 0.05% octylglucoside) to 5-carboxyflourescein-conjugated AVPdi-Phe-NH2 (AVP-diPhe-FAM) at 5 nM final concentration.
# (§2) The reactions were read after an incubation time of 1 hour at room temperature with standard cut-off filters for the fluorescein fluorophore (λex=485 nm; λem=530 nm) in 384-well black plates (Molecular Devices Corp.). Fluorescence polarization values were plotted as a function of the protein concentration, and the effective concentration 50 (EC50) values were obtained by fitting the data to a 4-parameter equation using Kaleidagraph software (Synergy software, Reading, Pa.). The apparent Kd values were determined from the EC50 values. Inhibition Constants (Ki values) for the antagonists were determined by the addition of 0.06 μM MLXBIR3SG, 0.5 μM X-IAP BIR3, 0.2 μM C-IAP1 BIR3 or 0.4 μM C-IAP-2 BIR3 to wells containing 5 nM of the AVP-diPhe-FAM probe as well as 1:3 serial dilutions of antagonist compounds starting at a concentration of 200 μM in the polarization buffer. Samples were read after an incubation time of one hour. Fluorescence polarization values were plotted as a function of the antagonist concentration, and the IC50 values were obtained by fitting the data to a 4-parameter equation using Kaleidagraph software (Synergy software, Reading, Pa.). Ki values for the antagonists were determined from the IC50 values according to the procedure of Keating, S. M., Marsters, J, Beresini, M., Ladner, C., Zioncheck, K., Clark, K., Arellano, F., and Bodary, S. (2000) in Proceedings of SPIE: In Vitro Diagnostic Instrumentation (Cohn, G. E., Ed.) pp 128-137, Bellingham, Wash. […] All values are micromolar.
# [2] = biological target: T2, C-IAP2 BIR3 (Homo sapiens, UniProt Q13489); test: Fluorescence polarization peptide binding assay, C-IAP2 BIR3; settings: for IC50: 0.4 μM C-IAP-2 BIR3, 5 nM AVP-diPhe-FAM probe, one hour incubation; for Ki: determined from the IC50 values (procedure of Keating et al.)
# T2 construct: 0.4 μM C-IAP-2 BIR3
# Protocol: as §1, §2
# [3] = biological target: T3, ML/X-IAP chimera MLXBIR3SG (Homo sapiens, UniProt Q96CA5, S150G); test: Fluorescence polarization peptide binding assay, MLXBIR3SG; settings: for IC50: 0.06 μM MLXBIR3SG, 5 nM AVP-diPhe-FAM probe, one hour incubation; for Ki: determined from the IC50 values (procedure of Keating et al.)
# T3 sequence (Q96CA5 with tags, fused parts or gaps S150G): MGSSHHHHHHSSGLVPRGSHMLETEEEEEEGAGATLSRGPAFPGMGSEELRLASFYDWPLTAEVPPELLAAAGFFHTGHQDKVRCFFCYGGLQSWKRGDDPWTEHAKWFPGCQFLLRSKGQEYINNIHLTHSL
# Protocol: The following fluorescence polarization experiments used a chimeric BIR domain referred to as MLXBIR3SG in which 11 of 110 residues correspond to those found in XIAP BIR3, while the remainder correspond to ML-IAP BIR. […] The improved caspase-9 inhibition of the chimeric BIR domain MLXBIR3SG has been correlated with increased inhibition of doxorubicin-induced apoptosis when transfected into MCF7 cells.
# as §1, §2
# [4] = biological target: T4, X-IAP BIR3 (Homo sapiens, UniProt P98170); test: Fluorescence polarization peptide binding assay, X-IAP BIR3; settings: for IC50: 0.5 μM X-IAP BIR3, 5 nM AVP-diPhe-FAM probe, one hour incubation; for Ki: determined from the IC50 values (procedure of Keating et al.)
# T4 construct: 0.5 μM X-IAP BIR3
# Protocol: as §1, §2
# T4 sequence (P98170 241-356 limits assumed): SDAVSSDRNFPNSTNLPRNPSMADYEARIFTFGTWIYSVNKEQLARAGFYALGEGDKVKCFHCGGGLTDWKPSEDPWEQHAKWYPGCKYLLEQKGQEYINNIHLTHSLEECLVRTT
# T1 sequence (Q13490 253-363 limits assumed): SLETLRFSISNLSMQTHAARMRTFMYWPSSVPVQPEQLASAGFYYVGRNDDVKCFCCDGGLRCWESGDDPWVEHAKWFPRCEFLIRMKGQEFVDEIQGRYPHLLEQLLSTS
# T2 sequence (Q13489 238-349 limits assumed): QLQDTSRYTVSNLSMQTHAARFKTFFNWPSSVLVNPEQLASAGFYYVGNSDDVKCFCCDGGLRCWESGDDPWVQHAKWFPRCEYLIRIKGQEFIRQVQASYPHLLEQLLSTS
Compound,IC50 [1],Ki [1],IC50 [2] [µM],Ki [2] [µM],IC50 [3] [µM],Ki [3] [µM],IC50 [4] [µM],Ki [4] [µM]
CN[C@@H](C)C(=O)N[C@H](C(=O)N[C@H](C(=O)Nc1sc(-c2cnccn2)nc1-c1ccccc1)C(C)(C)C)c1ccccc1 [Compound 11],13.5 µM,2.09 µM,34.5,7.44,~60,13.7,> 200,> 35
"CN[C@@H](C)C(=O)N[C@H](C(=O)N(C)[C@H](C(=O)Nc1snnc1-c1ccccc1)C(C)(C)C)C1CCCCC1 [Compound 24, (S)-2-((S)-2-cyclohexyl-N-methyl-2-((S)-2-(methylamino)propan-amido)acetamido)-3,3-dimethyl-N-(4-phenyl-1,2,3-thiadiazol-5-yl)butanamide]",1.32 µM,0.205 µM,1.32,0.285,4.08,0.929,> 200,> 35
CN[C@@H](C)C(=O)N[C@H](C(=O)N[C@H](C(=O)Nc1cc(C)nn1-c1ccccc1)C(C)(C)SCc1ccc(OC)cc1)C1CCCCC1 [Compound 16],0.738 µM,0.114 µM,1.32,0.286,4.54,1.03,> 200,> 35
CN[C@@H](C)C(=O)N[C@H](C(=O)N[C@H](C(=O)Nc1snnc1-c1ccccc1)C(C)(C)SCNC(C)=O)C1CCCCC1 [Compound 21],0.202 µM,0.031 µM,0.342,0.074,0.407,0.093,22.4,3.99
CN[C@@H](C)C(=O)N[C@H](C(=O)N(C)[C@H](C(=O)Nc1snnc1-c1ccccc1)C(C)C)C1CCCCC1 [Compound 14],0.14 µM,0.0217 µM,0.226,0.0488,0.25,0.057,26.4,4.7
CN[C@@H](C)C(=O)N[C@H](C(=O)N[C@H](C(=O)NCC(c1ccccc1)c1ccccc1)C(C)(C)OC)C1CCOCC1 [Compound 9],5.84 µM and 3.18 µM,0.905 µM and 0.492 µM,–,–,–,–,> 200,> 35
"CN[C@@H](C)C(=O)N[C@H](C(=O)N[C@H](C(=O)Nc1snnc1-c1ccccc1)C(C)(C)SC)C1CCCCC1 [Compound 20, (R)-2-((S)-2-cyclohexyl-2-((S)-2-(methylamino)propanamido)-acetamido)-3-methyl-3-(methylthio)-N-(4-phenyl-1,2,3-thiadiazol-5-yl)butanamide]",0.133 µM,0.021 µM,0.202,0.044,0.249,0.057,21.7,3.87
CN[C@@H](C)C(=O)N[C@H](C(=O)N[C@H](C(=O)NCC(c1ccccc1)c1ccccc1)C(C)(C)O)C(C)C [Compound 12],6.88 µM,1.06 µM,19.1,4.13,2.54,0.579,> 200,> 35
CN[C@@H](C)C(=O)N[C@H](C(=O)N[C@H](C(=O)Nc1snnc1-c1ccccc1)C(C)(C)F)C1CCCCC1 [Compound 6],0.131 µM,0.02 µM,0.222,0.048,0.248,0.057,8.84,1.57
CN[C@@H](C)C(=O)N[C@H](C(=O)N[C@H](C(=O)NCC(c1ccccc1)c1ccccc1)C(C)(C)SC)C1CCCCC1 [Compound 13],3.89 µM,0.602 µM,6.25,1.35,4.22,0.963,> 200,> 35
